Literature values as cited in PMC3066546, “Development of modified nucleosides that have supremely high anti-HIV activity and low toxicity and prevent the emergence of resistant HIV mutants” (Proceedings of the Japan Academy. Series B, Physical and …, 2011).
Like-named read-outs stand apart in the source and are kept apart here.

How the values were obtained:
HIV [1] = conditions: 24 h after removal of extracellular drug, MT4 cells and MAGI cells cultured with 0.1 µM
HIV-1wild = test system: HIV-1wild; design: method as in PMID 18487070; conditions: Table 7; read-out: Anti-HIV activity (MAGI assay, µg) HIV-1wild
HIV-1 M184V = test system: HIV-1 M184V; design: method as in PMID 563233, PMID 17548498, PMID 18487070; conditions: Table 6
HIV-1 MDR = test system: HIV-1 MDR; design: method as in PMID 563233, PMID 17548498, PMID 18487070; conditions: Table 6
adenosine deaminase = test system: adenosine deaminase; design: method as in PMID 563233, PMID 17548498, PMID 18487070; conditions: conditions where 4′EdA was completely deaminated in 60 min
HIV-1 Wild-type = test system: HIV-1 Wild-type; design: method as in PMID 563233, PMID 17548498, PMID 18487070; conditions: Table 6
HIV-1MDR = test system: HIV-1MDR; design: method as in PMID 18487070; conditions: Table 7; read-out: Anti-HIV activity (MAGI assay, µg) HIV-1MDR
[2] = design: method as in PMID 563233, PMID 17548498, PMID 18487070; conditions: 120 min, acidic conditions of gastric juices (pH 1.06), 24 ℃
[3] = Table 6
DNA polymerase β = conditions: read-out: EC50 against DNA polymerase β
[4] = CEM cells, MT4 cells, MAGI-CCR5 cells
[5] = molecular target: human mitochondrion DNA polymerase (DNA polymerase γ); design: method as in PMID 17548498, PMID 18487070; conditions: read-out: EC50 to inhibit the incorporation of dATP
DNA polymerase α = conditions: read-out: EC50 against DNA polymerase α
HIV-1M184V = test system: HIV-1M184V; design: method as in PMID 18487070; conditions: Table 7; read-out: Anti-HIV activity (MAGI assay, µg) HIV-1M184V
[6] = test system: multi-drug resistant HIV mutant
HIV [7] = test system: HIV; design: method as in PMID 15456247
RT of wild-type HIV = test system: RT of wild-type HIV; design: method as in PMID 15456247; conditions: compared with AZTTP
RT of the M184V mutant = test system: RT of the M184V mutant; design: method as in PMID 15456247; conditions: 4′EddCTP compared with RT of wild-type HIV

## C#C[C@]1(CO)O[C@@H](n2cnc3c(N)nc(F)nc32)C[C@@H]1O [4′Ed2FA, 2′-deoxy-4′-C-ethynyl-2-fluoroadenosine]
HIV [1]
  cells protected against the infection of HIV: About 50%
HIV-1wild
  EC50: 0.2 nM
HIV-1 M184V
  EC50: 3.1 nM
HIV-1 MDR
  EC50: 0.15 nM
Adenosine deaminase
  stability to adenosine deaminase: completely stable
HIV-1 Wild-type
  EC50: 0.068 nM
ICR mice; i.v., single dosage 1 mg Kg−1, ICR mice
  Survivors/total: 8/8
ICR mice; i.v., single dosage 3 mg Kg−1, ICR mice
  Survivors/total: 8/8
ICR mice; i.v., single dosage 10 mg Kg−1, ICR mice
  Survivors/total: 8/8
ICR mice; i.v., single dosage 30 mg Kg−1, ICR mice
  Survivors/total: 8/8
ICR mice; i.v., single dosage 100 mg Kg−1, ICR mice
  Survivors/total: 8/8
ICR mice; oral or intravenous administration up to 100 mg kg−1
  acute toxicity to mice: did not show any acute toxicity
ICR mice; p.o, single dosage 1 mg Kg−1, ICR mice
  Survivors/total: 8/8
ICR mice; p.o, single dosage 3 mg Kg−1, ICR mice
  Survivors/total: 8/8
ICR mice; p.o, single dosage 10 mg Kg−1, ICR mice
  Survivors/total: 8/8
ICR mice; p.o, single dosage 30 mg Kg−1, ICR mice
  Survivors/total: 8/8
ICR mice; p.o, single dosage 100 mg Kg−1, ICR mice
  Survivors/total: 8/8
HIV-1MDR
  EC50: 0.14 nM
[2]
  part decomposed: 3%
[3]
  CC50: 7500 nM

## C#C[C@]1(COP(=O)(O)OP(=O)(O)OP(=O)(O)O)O[C@@H](n2cnc3c(N)nc(F)nc32)C[C@@H]1O [4′Ed2FATP, 2′-deoxy-4′-C-ethynyl-2-fluoroadenosine-5-O-triphosphate]
DNA polymerase β
  EC50: > 200000 nM
[4]
  intracellular half-life (T1/2): ~18 h
[5]
  EC50: 10000 nM
DNA polymerase α
  EC50: > 200000 nM

## C#C[C@@]1(CO)C=C[C@H](n2cc(C)c(=O)[nH]c2=O)O1 [4′Ed4T, 4′-C-ethynyl-2′,3′-didehydro-3′-deoxythymidine]
HIV-1wild
  EC50: 1500 nM
HIV-1M184V
  EC50: 17000 nM
wild-type HIV
  potency against wild-type HIV compared with d4T: more potent
[6]
  potency against multi-drug resistant HIV mutant compared with d4T: more potent
M184V-mutant
  potency against M184V-mutant compared with d4T: a little less potent
HIV-1MDR
  EC50: 1100 nM

## C#C[C@@]1(CO)CC[C@H](n2ccc(N)nc2=O)O1 [4′EddC, 4′-C-ethynyl-2′,3′-dideoxycytidine]
HIV [7]
  activity against HIV in cellular systems: inactive

## C#CC1(COP(=O)(O)OP(=O)(O)OP(=O)(O)O)CCC(n2ccc(N)nc2=O)O1 (stereo not drawn) [4′EddCTP]
RT of wild-type HIV
  activity against the RT of wild-type HIV: more active
RT of the M184V mutant
  activity against RT of the M184V mutant: much less active
